The IC50 is the concentration needed to halve the response being measured. Low readings indicate higher potency, high ones lower potency.

This assay has as its target T1, mammalian α-glucosidase (rat α-glucosidase; rat-intestinal acetone powder).
T1 construct: gene Si; crude soluble supernatant of sonicated rat-intestinal acetone powder (Sigma-Aldrich); native, not purified
Put plainly: colorimetric inhibition assay, absorbance at […] nm. It counts as biochemical. Conditions: substrate p-nitrophenyl α-D-glucopyranoside, phosphate buffer pH 6.8, 37 °C (as in screening protocol); mode printed both as competitive and as non-competitive.

SMILES strings stand for the structures. Values after ≈ are worked out from the molar mass of the structure shown.

For the compound `CN1C(=O)C(CCl)N(C(=O)OC(C)(C)C)C1C(C)(C)C` (stereo not shown) [2-t-butyl-5-chloromethyl-3-methyl-4-oxoimidazolidine-1-carboxylic acid, t-butyl ester], the IC50 is 32.08 µg/mL (≈ 105 µM).

The values are drawn from PMC5937091, “Efficacy of Alpha Glucosidase Inhibitor from Marine Actinobacterium in the Control of Postprandial Hyperglycaemia in Streptozotocin (STZ) Induced Diabetic Male Albino Wister Rats” (Iranian Journal of Pharmaceutical Research : IJPR, 2018).
